Reference: patent US8080654B2, “Macrocyclic quinoxaline compounds as HCV NS3 protease inhibitors” (Insituto di Ricerche di Biologia Molecolare P. Angeletti SpA, priority 2008, dated 2011)
“Also recorded” adds a separate entry of the source. Where two headings read alike, the source gives them in different places.

Legend:
[1] = Rat pharmacokinetics per os (plasma AUC, liver concentration)
Experimental: (§1) Plasma samples were collected at time points between 2 minutes and 24 h, and compound levels were determined by RP-HPLC. Liver samples were collected post mortem in rat and following anesthesia (0.5 h prior to biopsy) in dog. Liver samples were weighed, homogenized, and diluted using techniques known to those skilled in the art, and compound levels were determined by RP-HPLC.
(§2) Pharmacokinetic parameters were calculated based on non-compartmental analysis (e.g., using WATSON®, WINNOLIN®). Predose concentrations that were below the limit of quantitation (BLQ) were assigned a value of 0. […] AUC values were calculated using linear trapezoidal method for ascending concentrations and the log trapezoidal method for descending concentrations.

[2] = Dog pharmacokinetics per os (plasma AUC, liver concentration)
Experimental: as §1, §2

[3] = In vivo covalent protein binding of 3H-labelled compound; conditions: Rat @ 6 h, 20 mg/kg oral
Experimental: In-Vivo Covalent Binding^4: […] Plasma and liver were collected and flash frozen/stored at −80° C. before analysis. Counting of the plasma samples: Place a 200 μL aliquot in a 20 mL scintillation vial. Add 500 μL of SOLVABLE™ and incubate at 1 h with shaking at 55° C. Remove, allow to cool prior to the addition of 15 mL scintillation cocktail, and count. […] Tissue homogenization: […] Counting of the liver homogenate: Aliquots were placed in a 20 mL scintillation vial, diluted with 1 mL of SOLVABLE™ and incubated for 1 h with shaking at 55° C. After removal from the incubator and cooling 15 mL scintillation cocktail and 30% H2O2 were added and the radioactivity counted. Protein precipitation: […] Protein precipitate resuspension: Sonication (minimal intensity, <5 sec) and vortexing until the pellet crumbles in 80% MeOH:20% water. Wash of the protein pellet: 2-5 mL 80:20 MeOH:water. If needed, remove 1.0 mL of the supernatant, add 15 mL of scintillation cocktail and count. Continue to wash the protein pellet until radioactivity in supernatant is <200 DPM or DPMs cease to decrease by more than 200 in consecutive washes. Dissolution of the final pellet: 1 mL of 1 N NaOH or Solvable™, incubated at 50° C. overnight or until completely dissolved. Counting of the final pellet: 1 mL of dissolved pellet, 15 mL scintillation cocktail (if another scintillation cocktail other than ULTIMA GOLD™ is used, pellet may require neutralization using 1 N HCl), and count. Protein concentration of the final pellet: BCA or BIO-RAD kit using BSA as a standard. Counting blank samples: 15 mL scintillation cocktail, in duplicate. Counting of the dosing solution: count a known volume of the dosing solution in triplicate. Data Analysis: Average the radioactivity counts (DPM) of the dosing solution and calculate the specific activity of the dosing solution in μCi/mol. Average the radioactivity counts of the blank samples. Subtract the counts of the averaged blank sample from the counts obtained from each liver and plasma pellet. Calculate the amount of radioactivity (μCi) per unit volume (L) for each liver and plasma pellet. Calculate the concentration of radioactivity in each plasma and liver pellet by dividing the value obtained above (μCi/L) by the specific activity (μCi/mol). Calculate the amount of covalently bound radioactivity to protein in pmol/mg protein.

[4] = Physical properties: equilibrium solubility and salt disproportionation (XRPD, NMR); format: physicochemical
Experimental: After centrifuging, the supernatant was analyzed by reversed-phase HPLC and the equilibrium solubility determined by comparison with a calibration curve. The solid material was in part transferred onto an XRPD plate, dried and then analyzed by X-Ray Powder Diffraction. The XRPD pattern was compared with positive controls for crystalline K+ salt, crystalline zwitterionic (or acidic) and amorphous forms of the test compound.

HCV replicon gt1b = experiment: HCV replicon activity, genotype 1b; format: cell-based; conditions: Hepatitis C virus; genotype 1b replicon; 50% viral replication suppression; read-out: Replicon Activity EC50 gtlb
NS 3/4A 1b = NS 3/4A 1b (Hepatitis C virus genotype 1b, UniProt P26663); experiment: biochemical; conditions: genotype 1b enzyme; read-out: NS 3/4A Inhibitory Activity (Ki) lb
Experimental: A NS3 protease assay can be performed, for example, in a final volume of 100 μl assay buffer containing 50 mM HEPES, pH 7.5, 150 mM NaCl, 15% glycerol, 0.15% TRITON X-100, 10 mM DTT, and 0.1% PEG 8000. NS3 and NS4A protease is pre-incubated with various concentrations of inhibitors in DMSO for 30 minutes. The reaction is initiated by adding the TRF peptide substrate (final concentration 100 nM). NS3 mediated hydrolysis of the substrate is quenched after 1 hour at room temperature with 100 μl of 500 mM MES, pH 5.5. […] IC50 values are derived using a standard four-parameter fit to the data. […] See P. Gallinari et al., 38 BIOCHEM. […] BIOCHEM. […] V. General Compound Production
(§3) NS 3/4A Inhibitory Activity^1 (Ki): NS 3/4A Inhibitory Activity was determined as described in Section IV.

1b mutant enzyme R155K = 1b mutant enzyme R155K (Hepatitis C virus genotype 1b, UniProt P26663, R1181K); experiment: NS3/4A TRF enzyme assay, 1b mutant R155K; format: biochemical, hepatitis C virus (HCV)
Experimental: (§4) A NS3 protease assay can be performed, for example, in a final volume of 100 μl assay buffer containing 50 mM HEPES, pH 7.5, 150 mM NaCl, 15% glycerol, 0.15% TRITON X-100, 10 mM DTT, and 0.1% PEG 8000. NS3 and NS4A protease is pre-incubated with various concentrations of inhibitors in DMSO for 30 minutes. The reaction is initiated by adding the TRF peptide substrate (final concentration 100 nM). NS3 mediated hydrolysis of the substrate is quenched after 1 hour at room temperature with 100 μl of 500 mM MES, pH 5.5. […] Testing concentrations of different enzyme forms are selected to result in a signal to background ratio (S/B) of 10-30. IC50 values are derived using a standard four-parameter fit to the data. Ki values are derived from IC50 values using the following formula, IC50=Ki(1+[S]/KM), Eqn (1), where [S] is the concentration of substrate peptide in the reaction and KM is the Michaelis constant. See P. Gallinari et al., 38 BIOCHEM. […] BIOCHEM. […] V. General Compound Production
as §3

1b mutant enzyme A156T = 1b mutant enzyme A156T (Hepatitis C virus genotype 1b, UniProt P26663, A1182T); experiment: NS3/4A TRF enzyme assay, 1b mutant A156T; format: biochemical, hepatitis C virus (HCV)
Experimental: as §4, §3

1b mutant enzyme D168E = 1b mutant enzyme D168E (Hepatitis C virus genotype 1b, UniProt P26663, D1194E); experiment: NS3/4A TRF enzyme assay, 1b mutant D168E; format: biochemical, hepatitis C virus (HCV)
Experimental: as §4, §3

1b mutant enzyme D168Y = 1b mutant enzyme D168Y (Hepatitis C virus genotype 1b, UniProt P26663, D1194Y); experiment: NS3/4A TRF enzyme assay, 1b mutant D168Y; format: biochemical, hepatitis C virus (HCV)
Experimental: as §4, §3

1b mutant enzyme A156S = 1b mutant enzyme A156S (Hepatitis C virus genotype 1b, UniProt P26663, A1182S); experiment: NS3/4A TRF enzyme assay, 1b mutant A156S; format: biochemical, hepatitis C virus (HCV)
Experimental: as §4, §3

1b mutant enzyme D168A = 1b mutant enzyme D168A (Hepatitis C virus genotype 1b, UniProt P26663, D1194A); experiment: NS3/4A TRF enzyme assay, 1b mutant D168A; format: biochemical, hepatitis C virus (HCV)
Experimental: as §4, §3

1b mutant enzyme R155N = 1b mutant enzyme R155N (Hepatitis C virus genotype 1b, UniProt P26663, R1181N); experiment: NS3/4A TRF enzyme assay, 1b mutant R155N; format: biochemical, hepatitis C virus (HCV)
Experimental: as §4, §3

1b mutant enzyme R155Q = 1b mutant enzyme R155Q (Hepatitis C virus genotype 1b, UniProt P26663, R1181Q); experiment: NS3/4A TRF enzyme assay, 1b mutant R155Q; format: biochemical, hepatitis C virus (HCV)
Experimental: as §4, §3

1b mutant enzyme D168T = 1b mutant enzyme D168T (Hepatitis C virus genotype 1b, UniProt P26663, D1194T); experiment: NS3/4A TRF enzyme assay, 1b mutant D168T; format: biochemical, hepatitis C virus (HCV)
Experimental: as §4, §3

1b mutant enzyme R155G = 1b mutant enzyme R155G (Hepatitis C virus genotype 1b, UniProt P26663, R1181G); experiment: NS3/4A TRF enzyme assay, 1b mutant R155G; format: biochemical, hepatitis C virus (HCV)
Experimental: as §4, §3

1b mutant enzyme D168V = 1b mutant enzyme D168V (Hepatitis C virus genotype 1b, UniProt P26663, D1194V); experiment: NS3/4A TRF enzyme assay, 1b mutant D168V; format: biochemical, hepatitis C virus (HCV)
Experimental: as §4, §3

1b mutant enzyme A156V = 1b mutant enzyme A156V (Hepatitis C virus genotype 1b, UniProt P26663, A1182V); experiment: NS3/4A TRF enzyme assay, 1b mutant A156V; format: biochemical, hepatitis C virus (HCV)
Experimental: as §4, §3

1b mutant enzyme D168Q = 1b mutant enzyme D168Q (Hepatitis C virus genotype 1b, UniProt P26663, D1194Q); experiment: NS3/4A TRF enzyme assay, 1b mutant D168Q; format: biochemical, hepatitis C virus (HCV)
Experimental: as §4, §3

1b mutant enzyme D168G = 1b mutant enzyme D168G (Hepatitis C virus genotype 1b, UniProt P26663, D1194G); experiment: NS3/4A TRF enzyme assay, 1b mutant D168G; format: biochemical, hepatitis C virus (HCV)
Experimental: as §4, §3

C=C[C@@H]1C[C@]1(NC(=O)[C@@H]1C[C@@H]2CN1C(=O)[C@H](C(C)(C)C)NC(=O)O[C@@H]1C[C@H]1CCCCCc1nc3ccc(OC)cc3nc1O2)C(=O)[N-]S(=O)(=O)C1CC1.[K+] [Example 1, Potassium {[(1R,2S)-1-({[(1aR,5S,8S,10R,22aR)-5-tert-butyl-14-methoxy-3,6-dioxo-1,1a,3,4,5,6,9,10,18,19,20,21,22,22a-tetradecahydro-8H-7,10-methanocyclopropa[18,19][1,10,3,6]dioxadiazacyclononadecino[11,12-b]quinoxalin-8-yl]carbonyl}amino)-2-vinylcyclopropyl]carbonyl}(cyclopropylsulfonyl)azanide]
Rat Liver Concentration @ 24 h (25 mpk per os) ([1]; 25 mpk per os): 27.9 µM | Rat Plasma AUC @ 25mpk per os ([1]; 25 mpk per os, plasma): 20.6 µM·h | Dog Liver Concentration @ 24 h (5mpk per os) ([2]; 5 mpk per os): 120 µM | Dog Plasma AUC @ 5mpk per os ([2]; 5 mpk per os, plasma): 48.6 µM·h | Covalent Protein Binding In Vivo, liver ([3]; LOQ = 3 pmol/mg): liver = LOQ | Covalent Protein Binding In Vivo, plasma ([3]; LOQ = 3 pmol/mg, 20 mg/kg): undetectable binding; also recorded: plasma = LOQ, | solubility at 24 h ([4]; thermodynamic from solid; K+ salt form, water; read-out: Aqueous solubility of K+ salt form): 1800 µg/mL

C=C[C@@H]1C[C@]1(NC(=O)[C@@H]1C[C@@H]2CN1C(=O)[C@H](C1CCCC1)NC(=O)O[C@@H]1CCC[C@H]1CCCCCc1nc3ccccc3cc1O2)C(=O)NS(=O)(=O)C1CC1 [WO 2008/057209 Example 96]
Covalent Protein Binding In Vivo, liver [3]: liver = 63 pmol eq./mg | Covalent Protein Binding In Vivo, plasma [3]: plasma = 6 pmol eq./mg

C=C[C@@H]1C[C@]1(NC(=O)[C@@H]1C[C@@H]2CN1C(=O)[C@H](C(C)(C)C)NC(=O)O[C@@H]1CCC[C@H]1CCCCCc1nc3ccc(OC)cc3cc1O2)C(=O)NS(=O)(=O)C1CC1 [WO 2008/057209 Example 103]
Covalent Protein Binding In Vivo, liver [3]: liver = 24 pmol eq./mg | Covalent Protein Binding In Vivo, plasma [3]: plasma = 6 pmol eq./mg

C=C[C@@H]1C[C@]1(NC(=O)[C@@H]1C[C@@H]2CN1C(=O)[C@H](C1CCCC1)NC(=O)O[C@@H]1CCC[C@H]1CCCCCc1nc3ccccc3nc1O2)C(=O)NS(=O)(=O)C1CC1 [WO 2008/057209 Example 108]
Covalent Protein Binding In Vivo, liver [3]: liver = 38 pmol eq./mg | Covalent Protein Binding In Vivo, plasma [3]: plasma = 15 pmol eq./mg

C=C[C@@H]1C[C@]1(NC(=O)[C@@H]1C[C@@H]2CN1C(=O)[C@H](C(C)(C)C)NC(=O)O[C@@H]1C[C@H]1CCCCCc1nc3ccc(OC)cc3cc1O2)C(=O)NS(=O)(=O)C1CC1 [WO 2008/057209 Example 110]
Rat Liver Concentration @ 24 h (25 mpk per os) ([1]; 25 mpk per os): 8.5 µM | AUC ([1]; plasma, po, 25 mg/kg): 5.8 µM·h | Dog Liver Concentration @ 24 h (5mpk per os) ([2]; 5 mpk per os): 3.3 µM | AUC ([2]; plasma, po, 5 mg/kg): 1 µM·h | Covalent Protein Binding In Vivo, liver ([3]; LOQ = 3 pmol/mg): liver = BLQ | Covalent Protein Binding In Vivo, plasma ([3]; LOQ = 3 pmol/mg): plasma = BLQ, | EC50 (HCV replicon gt1b): 5 nM | solubility at 24 h ([4]; water, thermodynamic from solid, K+ salt form, read-out: Aqueous solubility of K+ salt form): 9700 µg/mL | solubility at 24 h ([4]; water, thermodynamic from solid, crystalline zwitterionic form from disproportionation of the K+ salt, read-out: Aqueous solubility of crystalline zwitterionic form): < 9 µg/mL | Ki (NS 3/4A 1b): < 0.016 nM

C=C[C@@H]1C[C@]1(NC(=O)[C@@H]1C[C@@H]2CN1C(=O)[C@H](C(C)(C)C)NC(=O)O[C@@H]1CCC[C@H]1CCCCCc1nc3ccc(OC)cc3nc1O2)C(=O)NS(=O)(=O)C1CC1 [WO 2008/057209 Example 118]
Ki (1b mutant enzyme R155K): 0.08 nM | Ki (1b mutant enzyme A156T): 3.4 nM | Ki (1b mutant enzyme D168E): 0.12 nM | Ki (1b mutant enzyme D168Y): 1.5 nM | Ki (1b mutant enzyme A156S): 0.1 nM | Ki (1b mutant enzyme D168A): 0.86 nM | Ki (1b mutant enzyme R155N): 0.56 nM | Ki (1b mutant enzyme R155Q): 1.9 nM | Ki (1b mutant enzyme D168T): 0.78 nM | Ki (1b mutant enzyme R155G): 2.3 nM | Ki (1b mutant enzyme D168V): 0.65 nM | Ki (1b mutant enzyme A156V): 15 nM | EC50 (HCV replicon gt1b): 3 nM | Ki (1b mutant enzyme D168Q): 0.42 nM | Ki (1b mutant enzyme D168G): 0.45 nM | Ki (NS 3/4A 1b): < 0.016 nM
